In patent US8648094B2, “IAP BIR domain binding compounds” (Pharmascience, Inc., priority 2006, dated 2014):

Experiments:
SKOV-3 cells = assay: Survival MTT assay; assay type: cell-based; details: Homo sapiens, SK-OV-3, 72 hours
Experimental: (§1) One day prior the treatment with compound, 2000 to 4000 cells per well were plated in a tissue culture treated 96 well format dish with 100 uL of media and incubated at 37° C., 5% CO2. On the day of compound treatment, compounds were diluted with cell culture media to a working stock concentration of 2×. 100 ul of diluted compound were then added to each well. The treated plate was incubated for 72 hours at 37° C., 5% CO2. Upon incubation, the cell viability was assessed as follows; 20 uL of MTT reagent (5 mg/mL) were added per well to cell plate. The plate was incubated for 2 hrs at 37° C. in presence of 5% CO2. The supernatant was then removed from the plate and 100 uL of isopropanol was added. The absorbance was measured in a TECAN spectrophotometer at 570 nm. The percentage of viability was expressed in percentage of the signal obtained with non treated cells.

c-IAP1 = molecular target: T1, c-IAP1 (Homo sapiens, UniProt Q13490); assay: Detection of c-IAP1 in cells by western blotting; assay type: cell-based; details: HCT116 cells, overnight treatment
T1 construct: endogenous in cells; host or cells: HCT116
Experimental: Detection of cell expressed XIAP and PARP were done by western blotting. Cells were plated at 300 000 cells/well in a 60 mm wells (6 wells plate dish). The next day the cells were treated with selected compound at the indicated concentration. […] The resulting pellet was rinsed twice with cold TBS. The final washed pellet of cells was the lysed with 250 ul Lysis buffer (NP-40, glycerol, 1% of a protease inhibitor cocktail (Sigma)), placed at 4° C. for 25 min with gentle shaking. The cells extract was centrifuged at 4° C. for 10 min at 10 000 rpm. Both the supernatant and the pellet were kept for western blotting analysis as described below. From the supernatant, the protein content was evaluated and about 50 ug of protein was fractionated onto a 10% SDS-PAGE. Pellets were washed with the lysis buffer and re-suspend into 50 ul of Lamelli buffer 1×, boiled and fractionated on SDS-PAGE. Upon electrophoresis each gel was electro-transferred onto a nitrocellulose membrane at 0.6 A for 2 hours. Membrane non-specific sites were blocked for 1 hours with 5% Skim milk in TBST (TBS containing 0.1% (v/v) Tween-20) at RT. For protein immuno-detection, membranes were incubated overnight with primary antibodies raised against various IAPs or caspase-3 or caspase-9 primary antibodies were incubated at 4° C. with shaking at dilutions as follows:
Upon overnight incubation, the membranes received three washes of 15 min in TBST then were incubated for 1 hour at room temperature in the presence of a secondary antibody coupled with HRP-enzyme (Chemicon) and diluted at 1/5 000. Upon incubation each membrane were washed three times with TBST and the immunoreactive bands were detected by addition of a luminescent substrate (ECL kit Amersham) and capture of signal on a X-RAY film for various time of exposure.

MDA-MB-231 cells = assay: Survival MTT assay; assay type: cell-based; details: Homo sapiens, 72 hours, read-out: MDA-MB231 EC50
Experimental: as §1

HCT116 colorectal cells = assay: Potentiation of TRAIL efficacy in survival assay; assay type: cell-based, human; details: 10 nM of compound
Experimental: Survival assays were preformed on the following transformed human cancer cell lines, MDA-MB-231, SKOV-3, H460, PC3, HCT-116, and SW480 cells. Cells were seeded in 96 well plates at a respective density of 5000 and 2000 cells per well and incubated at 37° C. in presence of 5% CO2 for 24 hours. Selected compounds were diluted into the media at various concentration ranging from 0.00001 uM up to 100 uM. Diluted compounds were added to the culture media. For the MDA-MB-231 SKOV3, H460, PC3, HCT-116, and SW480 cells, the compounds were added either alone or in presence of 1-3 ng/ml of TRAIL. After 48-72 hours cellular viability was evaluated by MTS based assays. A solution of [3-(4,5-dimethylthiazol-2-yl)-5-(3-carboxymethoxyphenyl)-2-(4-sulfophenyl)-2H-tetrazolium, inner salt; MTS] was added onto cells for a period of 1 to 4 hours. Upon incubation the amount of converted MTS was evaluated using a Tecan spectrophotometer set at 570 nm.

selected cell lines = assay: Hollow fiber in vivo model; details: compared to fibers from vehicle treated control mice
Experimental: At day 1, selected cell lines are cultured and the fiber filled at a cell density of about 40,000 cells/fiber. At the day of operation (day 4), three fibers are implanted sub-cutaneous into 28-35 Nu/Nu CD-1 male mice. On day 5, mice start to receive daily injection via sub-cutaneous route of control vehicle or vehicle containing the selected compound at the appropriate concentration and/or injection of cytotoxic agent via intra-peritoneal route. Upon 4 days of consecutive treatments, the animals are sacrificed, each fiber is removed and the metabolic viability of the remaining cells determined by MTT assay. Efficacy of the compound is define as the difference between the vehicle-treated animal and the animal treated with the compound alone or the compound given in combination of the cytotoxic agent

A2780S ovarian cells = assay: Potentiation of TRAIL efficacy in survival assay; assay type: cell-based; details: 10 nM of compound

T1 sequence (Q13490 whole entry): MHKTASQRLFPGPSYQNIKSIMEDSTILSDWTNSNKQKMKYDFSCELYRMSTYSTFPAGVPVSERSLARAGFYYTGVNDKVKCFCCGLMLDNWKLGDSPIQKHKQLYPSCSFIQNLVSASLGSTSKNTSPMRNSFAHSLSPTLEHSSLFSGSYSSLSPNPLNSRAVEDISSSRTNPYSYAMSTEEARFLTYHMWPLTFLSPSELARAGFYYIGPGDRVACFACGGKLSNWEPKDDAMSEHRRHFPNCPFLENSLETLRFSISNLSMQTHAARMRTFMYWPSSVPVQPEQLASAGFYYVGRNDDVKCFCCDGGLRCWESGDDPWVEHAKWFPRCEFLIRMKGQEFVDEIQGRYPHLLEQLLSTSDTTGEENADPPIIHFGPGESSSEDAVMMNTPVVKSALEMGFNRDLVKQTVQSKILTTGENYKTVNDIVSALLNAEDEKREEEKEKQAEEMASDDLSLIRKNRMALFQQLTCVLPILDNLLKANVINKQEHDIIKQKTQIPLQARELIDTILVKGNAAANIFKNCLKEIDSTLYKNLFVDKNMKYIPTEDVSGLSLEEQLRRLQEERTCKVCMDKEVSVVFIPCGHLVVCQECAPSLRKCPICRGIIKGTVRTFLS

Row | SMILES | EC50 (SKOV-3 cells) [nM] | c-IAP1 levels (c-IAP1) | EC50 (MDA-MB-231 cells) [nM] | other results
1 | CN[C@@H](C)C(=O)N[C@H](C(=O)N1CCC[C@H]1CN(CCc1ccccc1)C(=O)CNC(=O)c1cccc(C(=O)NCC(=O)N(CCc2ccccc2)C[C@@H]2CCCN2C(=O)[C@@H](NC(=O)[C@H](C)NC)C(C)(C)C)c1)C(C)(C)C [Compound 44] | < 10 | reduced |  | 
2 | CN[C@@H](C)C(=O)N[C@H](C(=O)N1CCC[C@H]1CN(CCc1ccccc1)C(=O)CCNC(=O)c1ccc(C(=O)NCCC(=O)N(CCc2ccccc2)C[C@@H]2CCCN2C(=O)[C@@H](NC(=O)[C@H](C)NC)C(C)(C)C)cc1)C(C)(C)C [Compound 91] | 10 to 25 | reduced |  | 
3 | CN[C@@H](C)C(=O)N[C@H](C(=O)N1CCC[C@H]1CN(Cc1cccc(C(F)(F)F)c1)C(=O)CCCCCCCCC(=O)N(Cc1cccc(C(F)(F)F)c1)C[C@@H]1CCCN1C(=O)[C@@H](NC(=O)[C@H](C)NC)C(C)(C)C)C(C)(C)C [Compound 100] |  | reduced |  | 
4 | CN[C@@H](C)C(=O)N[C@H](C(=O)N1CCC[C@H]1CN(CCc1ccc(C(F)(F)F)cc1)C(=O)CCCCCCCCC(=O)N(CCc1ccc(C(F)(F)F)cc1)C[C@@H]1CCCN1C(=O)[C@@H](NC(=O)[C@H](C)NC)C(C)(C)C)C(C)(C)C [Compound 67] |  | reduced |  | 
5 | CN[C@@H](C)C(=O)N[C@H](C(=O)N1CCC[C@H]1CN(CCc1ccccc1)C(=O)Nc1ccc(NC(=O)N(CCc2ccccc2)C[C@@H]2CCCN2C(=O)[C@@H](NC(=O)[C@H](C)NC)C(C)(C)C)cc1)C(C)(C)C [Compound 20] | 10 to 25 |  | < 10 | 
6 | CN[C@@H](C)C(=O)N[C@H](C(=O)N1CCC[C@H]1CN(CCc1ccccc1)C(=O)c1ccc(C(=O)N(CCc2ccccc2)C[C@@H]2CCCN2C(=O)[C@@H](NC(=O)[C@H](C)NC)C(C)(C)C)s1)C(C)(C)C [Compound 26] | 10 to 25 |  | < 10 | 
7 | CN[C@@H](C)C(=O)N[C@H](C(=O)N1CCC[C@H]1CN(CCc1ccc(F)cc1)C(=O)CCCCCCCCC(=O)N(CCc1ccc(F)cc1)C[C@@H]1CCCN1C(=O)[C@@H](NC(=O)[C@H](C)NC)C(C)(C)C)C(C)(C)C [Compound 29] | 10 to 25 |  | < 10 | 
8 | CN[C@@H](C)C(=O)N[C@H](C(=O)N1CCC[C@H]1CN(CCc1ccccc1)C(=O)CNC(=O)C(=O)NCC(=O)N(CCc1ccccc1)C[C@@H]1CCCN1C(=O)[C@@H](NC(=O)[C@H](C)NC)C(C)(C)C)C(C)(C)C [Compound 31] | < 10 | reduced | < 10 | potentiated TRAIL efficacy (HCT116 colorectal cells): approximately 2 logs; decrease in MTT signal in fibers from treated mice (selected cell lines): 70%
9 | CN[C@@H](C)C(=O)N[C@H](C(=O)N1CCC[C@H]1CN(CCc1ccccc1)C(=O)CNC(=O)c1ccc(-c2ccc(C(=O)NCC(=O)N(CCc3ccccc3)C[C@@H]3CCCN3C(=O)[C@@H](NC(=O)[C@H](C)NC)C(C)(C)C)cc2)cc1)C(C)(C)C [Compound 45] | < 10 | reduced |  | 
10 | CN[C@@H](C)C(=O)N[C@H](C(=O)N1CCC[C@H]1CN(CCc1ccccc1)C(=O)CNC(=O)c1ccc(C(=O)NCC(=O)N(CCc2ccccc2)C[C@@H]2CCCN2C(=O)[C@@H](NC(=O)[C@H](C)NC)C(C)(C)C)cc1)C(C)(C)C [Compound 35] | < 10 |  | < 10 | potentiated TRAIL efficacy (A2780S ovarian cells): approximately 2 logs
11 | CN[C@@H](C)C(=O)N[C@H](C(=O)N1CCC[C@H]1CN(CCCCc1ccccc1)C(=O)CCCCCCCCC(=O)N(CCCCc1ccccc1)C[C@@H]1CCCN1C(=O)[C@@H](NC(=O)[C@H](C)NC)C(C)(C)C)C(C)(C)C [Compound 40] |  | reduced |  | 
12 | CN[C@@H](C)C(=O)N[C@H](C(=O)N1CCC[C@H]1CN(C[C@H](C)c1ccccc1)C(=O)CCCCCCCCC(=O)N(C[C@@H]1CCCN1C(=O)[C@@H](NC(=O)[C@H](C)NC)C(C)(C)C)C[C@H](C)c1ccccc1)C(C)(C)C [Compound 21] | < 10 |  | < 10 | 
13 | CN[C@@H](C)C(=O)N[C@H](C(=O)N1CCC[C@H]1CN(CCc1ccccc1)C(=O)c1ccc2cc(C(=O)N(CCc3ccccc3)C[C@@H]3CCCN3C(=O)[C@@H](NC(=O)[C@H](C)NC)C(C)(C)C)ccc2c1)C(C)(C)C [Compound 56] | < 10 |  |  | decrease in MTT signal in fibers from treated mice (selected cell lines): 70%
